Source: patent US6426355B1, “Heterocyclic carboxamide-containing thiourea inhibitors of herpes viruses containing phenylenediamine group” (American Home Products, priority 1998, dated 2002)
≈ marks a conversion by molar mass, not a printed value.

Legend:
VZV strain Ellen = assay: VZV Antiviral (ELISA) assay; type: cell-based; settings: VZV strain Ellen in HFF cells; for % inhibition 10 ug/ml VZV: at 10 ug/ml
Procedure, shortened: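 Cell-based ELISA: infected/uninfected HFF mix (VZV Ellen, MOI <0.1) exposed to compound in DMEM/2% FBS for 3 days at 37° C. Anti-gpII monoclonal plus β-galactosidase-linked secondary, detected as 4-methylumbelliferone fluorescence; IC50 derived by comparing fluorescence with versus without compound.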

HSV-1 = assay: HSV Antiviral (ELISA) assay; type: cell-based; settings: HSV-1 in Vero cells
Procedure, shortened: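 Replication measured as glycoprotein D signal in fixed cells: anti-gD antibody plus β-galactosidase-linked secondary, fluorogenic substrate read at 365/450 nm. Vero cells (2% FBS DMEM) received compound 30 min pre-infection, HSV-1 MOI 0.006, ~24 h incubation; IC50 relative to no-compound fluorescence.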

[1] = tested on: HCMV recombinant mutant virus (RV145); assay: HCMV microtiter plate assay (beta-glucuronidase reporter); type: cell-based, Human Cytomegalovirus; settings: HCMV in human foreskin fibroblasts
Procedure, shortened: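 Replication was read out as virus-encoded β-glucuronidase activity, measured with a chromogenic or fluorogenic glucuronide substrate in cell lysates at 96 h post-infection. Infection of human foreskin fibroblasts with RV145 took place with compound present. IC50 was derived from a range of inhibitor amounts.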

| SMILES | IC50 (ug/ml) VZV (VZV strain Ellen) [µg/mL] | IC50 (ug/ml) HSV (HSV-1) [µg/mL] | IC50 (ug/ml) HCMV [1] [µg/mL] | % inhibition 10 ug/ml VZV (VZV strain Ellen) [%] |
| --- | --- | --- | --- | --- |
| Nc1ccc(Cl)cc1NC(=S)Nc1ccc(NC(=O)c2ccco2)cc1 [Example 440] | 9 (≈ 23.3 µM) | 1 (≈ 2.58 µM) | 0.3 (≈ 0.775 µM) |  |
| N#Cc1cccc(NC(=S)Nc2ccc(NC(=O)c3ccco3)cc2)c1 [Example 441] | >10 | >10 | 0.17 (≈ 0.469 µM) |  |
| O=C(Nc1ccc(NC(=S)Nc2ccc(Cl)nc2)cc1)c1ccco1 [Example 445] | >10 | 10 (≈ 26.8 µM) | 0.15 (≈ 0.402 µM) |  |
| Nc1c(Cl)cccc1NC(=S)Nc1ccc(NC(=O)c2ccco2)cc1 [Example 446] | >10 | 10 (≈ 25.8 µM) | 0.7 (≈ 1.81 µM) |  |
| NNC(=O)c1cccc(NC(=S)Nc2ccc(NC(=O)c3ccco3)cc2)c1 [Example 447] | >10 | >10 | >10 |  |
| NNC(=O)c1cccc(NC(=S)Nc2ccc(NC(=O)c3csnn3)cc2)c1 [Example 449] | >10 | >10 | 1.6 (≈ 3.87 µM) |  |
| CC(C)c1cccc(NC(=S)Nc2ccc(NC(=O)c3csnn3)cc2)c1 [Example 450] | >10 | >10 | 0.05 (≈ 0.126 µM) |  |
| CC(C)c1cccc(NC(=S)Nc2ccc(NC(=O)c3ccco3)cc2)c1 [Example 451] | >10 | 8 (≈ 21.1 µM) | 0.15 (≈ 0.395 µM) |  |
| N#Cc1cccc(NC(=S)Nc2ccc(NC(=O)c3csnn3)cc2)c1 [Example 453] | 3 (≈ 7.89 µM) | >10 | 0.07 (≈ 0.184 µM) |  |
| CN(C)c1cccc(NC(=S)Nc2ccc(NC(=O)c3ccco3)cc2)c1 [Example 455] | >10 | >10 | 0.3 (≈ 0.788 µM) | 30 |
| Cc1cccc(NC(=S)Nc2ccc(NC(=O)c3csnn3)cc2)c1 [Example 456] | >10 | >10 | 0.07 (≈ 0.189 µM) | 12 |
| O=C(Nc1ccc(NC(=S)Nc2cccc(C(F)(F)F)c2)cc1)c1csnn1 [Example 457] | >10 | >10 | 0.019 (≈ 0.0449 µM) | 26 |
| CC(=O)Nc1cccc(NC(=S)Nc2ccc(NC(=O)c3ccco3)cc2)c1 [Example 462] | >10 | >10 | 1 (≈ 2.54 µM) | 6 |
| CC(O)c1cccc(NC(=S)Nc2ccc(NC(=O)c3csnn3)cc2)c1 (stereo not shown) [Example 464] | >10 | >10 | 0.15 (≈ 0.375 µM) | 25 |
| Nc1cc(Cl)cc(NC(=S)Nc2ccc(NC(=O)c3csnn3)cc2)c1 [Example 466] | >10 | >10 | 0.011 (≈ 0.0272 µM) | 93 |
| COc1cc(NC(=S)Nc2ccc(NC(=O)c3ccco3)cc2)cc(OC)c1 [Example 467] | >15 | >10 | 0.12 (≈ 0.302 µM) | 93 |
| COc1cc(NC(=S)Nc2ccc(NC(=O)c3csnn3)cc2)cc(OC)c1 [Example 468] | >10 | >10 | 0.06 (≈ 0.144 µM) | 50 |
| COC(=O)c1cc(NC(=S)Nc2ccc(NC(=O)c3ccco3)cc2)cc(C(=O)OC)c1 [Example 469] | >10 | >10 | 0.1 (≈ 0.221 µM) | 54 |
| COc1cc(OC)c(NC(=S)Nc2ccc(NC(=O)c3ccno3)cc2)cc1Cl [Example 470] | >10 | 0.6 (≈ 1.39 µM) | 0.7 (≈ 1.62 µM) | 17 |
| CC(O)c1cccc(NC(=S)Nc2ccc(NC(=O)c3ccco3)cc2)c1 (stereo not shown) [Example 472] | >10 | >10 | 0.8 (≈ 2.1 µM) | 31 |

| SMILES | IC50 (ug/ml) VZV (VZV strain Ellen) [µg/mL] | IC50 (ug/ml) HSV (HSV-1) [µg/mL] | IC50 (ug/ml) HCMV [1] [µg/mL] | % inhibition 10 ug/ml VZV (VZV strain Ellen) [%] |
| --- | --- | --- | --- | --- |
| COc1cccc(NC(=S)Nc2ccc(NC(=O)c3ccco3)cc2)c1 [Example 473] | >10 | >10 | 0.3 (≈ 0.816 µM) | 40 |
| O=C(Nc1ccc(NC(=S)Nc2cccc(O)c2)cc1)c1ccco1 [Example 474] | >10 | >10 | 1 (≈ 2.83 µM) | 22 |
| CC(=O)Nc1cccc(NC(=S)Nc2ccc(NC(=O)c3csnn3)cc2)c1 [Example 478] | >10 | >10 | 0.4 (≈ 0.97 µM) | 31 |
| CN(C)c1cccc(NC(=S)Nc2ccc(NC(=O)c3csnn3)cc2)c1 [Example 479] | >10 | >10 | 0.1 (≈ 0.251 µM) | 30 |
| O=C(Nc1ccc(NC(=S)Nc2ccc3[nH]ncc3c2)cc1)c1ccco1 [Example 481] | >10 | >10 | 0.5 (≈ 1.32 µM) | 32 |
| O=C(Nc1ccc(NC(=S)Nc2ccc3scnc3c2)cc1)c1ccco1 [Example 482] | >10 | 9 (≈ 22.8 µM) | 0.3 (≈ 0.76 µM) | 33 |
| COC(=O)c1cc(NC(=S)Nc2ccc(NC(=O)c3csnn3)cc2)cc(C(=O)OC)c1 [Example 485] | >10 | >10 | 0.03 (≈ 0.0636 µM) | 11 |
| CC(N=[N+]=[N-])c1ccc(NC(=S)Nc2ccc(NC(=O)c3ccco3)cc2)cc1Cl (stereo not shown) [Example 486] | >10 | >10 | 0.045 (≈ 0.102 µM) | 22 |
| O=C(Nc1ccc(NC(=S)Nc2cccc(CO)c2)cc1)c1ccco1 [Example 488] | >10 | >10 | 1.2 (≈ 3.27 µM) | 13 |
| CN(C)c1ccc(Cl)cc1NC(=S)Nc1ccc(NC(=O)c2ccco2)cc1 [Example 489] | 3.5 (≈ 8.44 µM) | 5 (≈ 12.1 µM) | 0.17 (≈ 0.41 µM) | 99 |
| O=C(Nc1ccc(NC(=S)Nc2ccc3[nH]cnc3c2)cc1)c1ccco1 [Example 494] | >10 | >10 | 3.5 (≈ 9.27 µM) | 6 |
| Cc1nc2cc(NC(=S)Nc3ccc(NC(=O)c4ccco4)cc3)ccc2[nH]1 [Example 495] | >10 | >10 | 3 (≈ 7.66 µM) | 27 |
| CN(C)c1ccc(Cl)cc1NC(=S)Nc1ccc(NC(=O)c2csnn2)cc1 [Example 500] | >10 | >10 | 0.021 (≈ 0.0485 µM) | 48 |
| Nc1nccc(-c2ccc(NC(=S)Nc3ccc(NC(=O)c4csnn4)cc3)cc2Cl)n1 [Example 501] | >10 | >10 | 0.032 (≈ 0.0663 µM) | 10 |
| CN(C)c1c(Cl)cccc1NC(=S)Nc1ccc(NC(=O)c2csnn2)cc1 [Example 503] | >10 | 8 (≈ 18.5 µM) | 0.053 (≈ 0.122 µM) | 64 |
| CN(C)c1c(Cl)cccc1NC(=S)Nc1ccc(NC(=O)c2ccco2)cc1 [Example 505] | 8 (≈ 19.3 µM) | 10 (≈ 24.1 µM) | 0.2 (≈ 0.482 µM) | 79 |
| O=C(Nc1ccc(NC(=S)Nc2cccc(I)c2)cc1)c1csnn1 [Example 508] | >10 | >10 | 0.013 (≈ 0.027 µM) | 7 |
| CC(C)(C)c1cccc(NC(=S)Nc2ccc(NC(=O)c3csnn3)cc2)c1 [Example 509] | >10 | >10 | 0.03 (≈ 0.0729 µM) | 31 |
| O=C(Nc1ccc(NC(=S)NCc2cccc(Cl)c2)cc1)c1ccco1 [Example 510] | >10 | 8 (≈ 20.7 µM) | 0.04 (≈ 0.104 µM) | 19 |
| O=C(Nc1ccc(NC(=S)Nc2cccc(Br)c2)cc1)c1csnn1 [Example 513] | >10 | >10 | 0.011 (≈ 0.0253 µM) | 10 |
